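Method: 48-hour compound exposure of cells in 96-well plates, five concentrations, linear interpolation of endpoints. GI50 = concentration required for 50% inhibition of growth. TGI marks complete inhibition of growth.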
Legend:
Experiment in all cases: NCI anticancer screen, dose series, 48 h
UO-31 renal = tested on: UO-31 renal
HCT-116 colon = tested on: HCT-116 colon
SF-295 CNS = tested on: SF-295 CNS
A549 NSCLC = tested on: A549 NSCLC
HS 578T breast = tested on: HS 578T breast
BT-549 breast = tested on: BT-549 breast
OVCAR-3 ovarian = tested on: OVCAR-3 ovarian
NCI/ADR-RES ovarian = tested on: NCI/ADR-RES ovarian
OVCAR-4 ovarian = tested on: OVCAR-4 ovarian
MOLT-4 leukemia = tested on: MOLT-4 leukemia
CAKI-1 renal = tested on: CAKI-1 renal
NCI-H522 lung = tested on: NCI-H522 lung
EKVX NSCLC = tested on: EKVX NSCLC
SN12C renal = tested on: SN12C renal
PC-3 prostate = tested on: PC-3 prostate
786-0 renal = tested on: 786-0 renal
SF-268 CNS = tested on: SF-268 CNS
K-562 leukemia = tested on: K-562 leukemia
SF-539 CNS = tested on: SF-539 CNS
HT29 colon = tested on: HT29 colon
LOX IMVI melanoma = tested on: LOX IMVI melanoma
SNB-75 CNS = tested on: SNB-75 CNS
U251 CNS = tested on: U251 CNS
TK-10 renal = tested on: TK-10 renal
COLO 205 colon = tested on: COLO 205 colon
SW-620 colon = tested on: SW-620 colon
MALME-3M melanoma = tested on: MALME-3M melanoma
A498 renal = tested on: A498 renal
DU-145 prostate = tested on: DU-145 prostate
RPMI-8226 leukemia = tested on: RPMI-8226 leukemia
HL-60(TB) leukemia = tested on: HL-60(TB) leukemia
KM12 colon = tested on: KM12 colon
SK-MEL-5 melanoma = tested on: SK-MEL-5 melanoma
HCC-2998 colon = tested on: HCC-2998 colon
MDA-MB-435 = tested on: MDA-MB-435
ACHN renal = tested on: ACHN renal
HCT-15 colon = tested on: HCT-15 colon
T-47D breast = tested on: T-47D breast
NCI-H226 lung = tested on: NCI-H226 lung
MDA-MB-231 breast = tested on: MDA-MB-231 breast
OVCAR-5 ovarian = tested on: OVCAR-5 ovarian
OVCAR-8 ovarian = tested on: OVCAR-8 ovarian
NCI-H460 lung = tested on: NCI-H460 lung
HOP-92 NSCLC = tested on: HOP-92 NSCLC
M14 melanoma = tested on: M14 melanoma
NCI-H23 lung = tested on: NCI-H23 lung
SNB-19 CNS = tested on: SNB-19 CNS
UACC-257 melanoma = tested on: UACC-257 melanoma
SK-OV-3 ovarian = tested on: SK-OV-3 ovarian
SK-MEL-2 melanoma = tested on: SK-MEL-2 melanoma
HOP-62 NSCLC = tested on: HOP-62 NSCLC
UACC-62 melanoma = tested on: UACC-62 melanoma
MCF7 breast = tested on: MCF7 breast
SK-MEL-28 melanoma = tested on: SK-MEL-28 melanoma

## COc1ccc(C(=O)/C=C/c2c(OC)cc(OC)cc2OC)c(OC)c1
UO-31 renal
  GI50: > 100 µM
  TGI: > 100 µM
HCT-116 colon
  GI50: 3.31 µM
  TGI: > 100 µM
SF-295 CNS
  GI50: 0.987 µM
  TGI: 5.31 µM
A549 NSCLC
  GI50: 5.36 µM
  TGI: > 100 µM
HS 578T breast
  GI50: 5.23 µM
  TGI: > 100 µM
BT-549 breast
  GI50: 83.8 µM
  TGI: > 100 µM
OVCAR-3 ovarian
  GI50: 1.46 µM
  TGI: 8.37 µM
NCI/ADR-RES ovarian
  GI50: 0.78 µM
  TGI: > 100 µM
OVCAR-4 ovarian
  GI50: > 100 µM
  TGI: > 100 µM
MOLT-4 leukemia
  GI50: > 100 µM
  TGI: > 100 µM
CAKI-1 renal
  GI50: 1.44 µM
  TGI: > 100 µM
NCI-H522 lung
  GI50: 2.47 µM
  TGI: > 100 µM
EKVX NSCLC
  GI50: 4.2 µM
  TGI: > 100 µM
SN12C renal
  GI50: 7.24 µM
  TGI: > 100 µM
PC-3 prostate
  GI50: 4.6 µM
  TGI: > 100 µM
786-0 renal
  GI50: 15.4 µM
  TGI: > 100 µM
SF-268 CNS
  GI50: 7.33 µM
  TGI: > 100 µM
K-562 leukemia
  GI50: 0.853 µM
  TGI: > 100 µM
SF-539 CNS
  GI50: 2.7 µM
  TGI: > 100 µM
HT29 colon
  GI50: 0.881 µM
  TGI: > 100 µM
LOX IMVI melanoma
  GI50: 3.7 µM
  TGI: > 100 µM
SNB-75 CNS
  GI50: 3.26 µM
  TGI: > 100 µM
U251 CNS
  GI50: 3.95 µM
  TGI: > 100 µM
TK-10 renal
  GI50: 36.6 µM
  TGI: > 100 µM
COLO 205 colon
  GI50: 3.38 µM
  TGI: > 100 µM
SW-620 colon
  GI50: 0.911 µM
  TGI: > 100 µM
MALME-3M melanoma
  GI50: 7.44 µM
  TGI: > 100 µM
A498 renal
  GI50: 2.23 µM
  TGI: 8.87 µM
DU-145 prostate
  GI50: 3.21 µM
  TGI: > 100 µM
RPMI-8226 leukemia
  GI50: 5.8 µM
  TGI: > 100 µM
HL-60(TB) leukemia
  GI50: 3.64 µM
  TGI: > 100 µM
KM12 colon
  GI50: 1.21 µM
  TGI: > 100 µM
SK-MEL-5 melanoma
  GI50: 1.51 µM
  TGI: > 100 µM
HCC-2998 colon
  GI50: 2.51 µM
  TGI: > 100 µM
MDA-MB-435
  GI50: 0.275 µM
  TGI: 0.947 µM
ACHN renal
  GI50: 21.5 µM
  TGI: > 100 µM
HCT-15 colon
  GI50: 2.42 µM
  TGI: > 100 µM
T-47D breast
  GI50: 16.8 µM
  TGI: > 100 µM
NCI-H226 lung
  GI50: 21.3 µM
  TGI: > 100 µM
MDA-MB-231 breast
  GI50: 5.76 µM
  TGI: > 100 µM
OVCAR-5 ovarian
  GI50: > 100 µM
  TGI: > 100 µM
OVCAR-8 ovarian
  GI50: 4.91 µM
  TGI: > 100 µM
NCI-H460 lung
  GI50: 2.77 µM
  TGI: > 100 µM
HOP-92 NSCLC
  GI50: 16.6 µM
  TGI: 95.2 µM
M14 melanoma
  GI50: 2.59 µM
  TGI: > 100 µM
NCI-H23 lung
  GI50: 3.09 µM
  TGI: > 100 µM
SNB-19 CNS
  GI50: 8.37 µM
  TGI: > 100 µM
UACC-257 melanoma
  GI50: 36.6 µM
  TGI: > 100 µM
SK-OV-3 ovarian
  GI50: 27.9 µM
  TGI: > 100 µM
SK-MEL-2 melanoma
  GI50: 5.52 µM
  TGI: > 100 µM
HOP-62 NSCLC
  GI50: 11.8 µM
  TGI: > 100 µM
UACC-62 melanoma
  GI50: 1.32 µM
  TGI: > 100 µM
MCF7 breast
  GI50: 3.85 µM
  TGI: > 100 µM
SK-MEL-28 melanoma
  GI50: > 100 µM
  TGI: > 100 µM
